According to patent EP0427693A1, “Method for azide displacement of alpha-triflates of 1,5-lactones” (MONSANTO COMPANY, priority 1989, dated 1991):

What was measured:
Format in all cases: biochemical
human liver α-fucosidase = molecular target: T1, human liver α-fucosidase (Homo sapiens, UniProt P04066); assay: Human liver glycosidase inhibition, α-fucosidase; conditions: for inhibition at 1000 µM: 1 mM concentration of inhibitor, hydrolysis of 4-umbelliferyl pyrranosides; for inhibition of α-fucosidase (in words): human liver glycosidases
T1 construct: from tissue; host or cells: human liver
T1 sequence (P04066 32-466): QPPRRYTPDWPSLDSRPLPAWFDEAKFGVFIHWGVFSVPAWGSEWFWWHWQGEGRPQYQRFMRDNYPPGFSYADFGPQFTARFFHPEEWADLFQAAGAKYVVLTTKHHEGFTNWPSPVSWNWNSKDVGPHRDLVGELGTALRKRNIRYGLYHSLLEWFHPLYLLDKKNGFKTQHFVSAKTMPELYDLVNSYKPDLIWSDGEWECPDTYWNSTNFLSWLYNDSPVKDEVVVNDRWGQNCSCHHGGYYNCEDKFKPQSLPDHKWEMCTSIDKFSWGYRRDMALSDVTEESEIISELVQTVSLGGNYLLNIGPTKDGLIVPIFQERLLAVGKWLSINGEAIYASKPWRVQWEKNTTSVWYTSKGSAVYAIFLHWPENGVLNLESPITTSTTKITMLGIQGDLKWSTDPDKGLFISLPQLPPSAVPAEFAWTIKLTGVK

[1] = molecular target: T2, human liver α-mannosidase (Neutral) (Homo sapiens, UniProt Q9NTJ4); assay: Human liver glycosidase inhibition, neutral α-mannosidase; conditions: 1 mM concentration of inhibitor; hydrolysis of 4-umbelliferyl pyrranosides; read-out: % Inhibition α-Mannosidases Neutral
T2 construct: from tissue; host or cells: human liver
T2 sequence (Q9NTJ4 1-1040): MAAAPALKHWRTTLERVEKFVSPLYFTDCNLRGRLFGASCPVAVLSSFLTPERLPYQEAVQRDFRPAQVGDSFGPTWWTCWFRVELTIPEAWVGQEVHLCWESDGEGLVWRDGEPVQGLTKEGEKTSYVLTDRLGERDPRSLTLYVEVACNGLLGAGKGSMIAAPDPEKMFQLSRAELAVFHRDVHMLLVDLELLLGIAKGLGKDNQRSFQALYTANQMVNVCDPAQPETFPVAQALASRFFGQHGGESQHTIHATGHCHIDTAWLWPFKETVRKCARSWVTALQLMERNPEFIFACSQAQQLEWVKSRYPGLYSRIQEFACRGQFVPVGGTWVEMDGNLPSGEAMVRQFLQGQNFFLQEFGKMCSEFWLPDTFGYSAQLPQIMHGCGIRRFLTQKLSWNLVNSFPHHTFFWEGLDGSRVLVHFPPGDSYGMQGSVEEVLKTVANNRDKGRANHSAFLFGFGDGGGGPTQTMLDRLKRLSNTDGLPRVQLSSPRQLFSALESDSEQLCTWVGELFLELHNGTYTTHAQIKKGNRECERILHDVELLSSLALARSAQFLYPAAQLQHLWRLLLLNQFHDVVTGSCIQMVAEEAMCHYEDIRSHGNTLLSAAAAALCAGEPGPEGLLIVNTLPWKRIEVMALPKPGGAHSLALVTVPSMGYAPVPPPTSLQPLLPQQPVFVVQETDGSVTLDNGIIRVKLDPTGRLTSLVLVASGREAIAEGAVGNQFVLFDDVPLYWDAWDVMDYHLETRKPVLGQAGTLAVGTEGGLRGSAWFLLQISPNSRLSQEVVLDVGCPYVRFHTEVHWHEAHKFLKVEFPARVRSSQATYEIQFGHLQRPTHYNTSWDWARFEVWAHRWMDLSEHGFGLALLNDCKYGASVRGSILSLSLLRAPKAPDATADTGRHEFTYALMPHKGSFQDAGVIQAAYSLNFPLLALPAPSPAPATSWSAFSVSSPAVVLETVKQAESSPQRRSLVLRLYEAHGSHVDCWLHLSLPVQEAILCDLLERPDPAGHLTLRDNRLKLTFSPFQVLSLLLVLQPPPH

[2] = molecular target: T3, human liver α-mannosidase (Golgi II) (Homo sapiens, UniProt Q16706); assay: Human liver glycosidase inhibition, Golgi II α-mannosidase; conditions: 1 mM concentration of inhibitor; hydrolysis of 4-umbelliferyl pyrranosides; read-out: % Inhibition α-Mannosidases Golgi II
T3 construct: from tissue; host or cells: human liver
T3 sequence (Q16706 1-1144): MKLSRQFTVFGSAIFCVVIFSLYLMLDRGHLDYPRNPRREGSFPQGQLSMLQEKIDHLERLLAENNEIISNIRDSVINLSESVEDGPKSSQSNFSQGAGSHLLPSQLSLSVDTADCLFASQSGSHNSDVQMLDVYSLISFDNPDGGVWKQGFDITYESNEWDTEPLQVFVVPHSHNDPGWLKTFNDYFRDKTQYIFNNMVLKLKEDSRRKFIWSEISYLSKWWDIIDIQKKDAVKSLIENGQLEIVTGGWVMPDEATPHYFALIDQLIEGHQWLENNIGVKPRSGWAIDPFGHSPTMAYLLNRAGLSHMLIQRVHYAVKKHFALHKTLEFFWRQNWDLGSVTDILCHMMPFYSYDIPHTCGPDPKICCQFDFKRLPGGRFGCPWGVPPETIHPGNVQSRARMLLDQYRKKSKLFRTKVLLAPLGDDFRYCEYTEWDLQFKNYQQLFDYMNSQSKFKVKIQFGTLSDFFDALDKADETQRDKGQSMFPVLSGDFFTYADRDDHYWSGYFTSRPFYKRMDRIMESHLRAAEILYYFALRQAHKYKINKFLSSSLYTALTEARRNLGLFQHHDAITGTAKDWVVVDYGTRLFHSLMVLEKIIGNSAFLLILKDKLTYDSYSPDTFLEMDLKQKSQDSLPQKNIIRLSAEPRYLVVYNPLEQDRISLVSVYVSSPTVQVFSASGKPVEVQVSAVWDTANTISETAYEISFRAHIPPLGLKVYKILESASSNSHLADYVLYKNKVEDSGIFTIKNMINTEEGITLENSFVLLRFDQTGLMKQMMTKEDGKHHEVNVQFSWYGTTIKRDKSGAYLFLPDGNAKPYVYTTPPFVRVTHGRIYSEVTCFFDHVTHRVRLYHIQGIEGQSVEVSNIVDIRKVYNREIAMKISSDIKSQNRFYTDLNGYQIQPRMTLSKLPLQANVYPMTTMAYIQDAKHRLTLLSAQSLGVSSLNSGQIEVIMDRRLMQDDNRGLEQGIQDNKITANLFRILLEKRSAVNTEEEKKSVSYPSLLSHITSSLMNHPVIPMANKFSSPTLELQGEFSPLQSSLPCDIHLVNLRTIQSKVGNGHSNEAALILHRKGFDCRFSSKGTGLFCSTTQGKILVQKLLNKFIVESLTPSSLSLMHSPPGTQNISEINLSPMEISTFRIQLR

[3] = molecular target: T4, human liver α-mannosidase (Lysosomal) (Homo sapiens, UniProt O00754); assay: Human liver glycosidase inhibition, lysosomal α-mannosidase; conditions: 1 mM concentration of inhibitor; hydrolysis of 4-umbelliferyl pyrranosides; read-out: % Inhibition α-Mannosidases Lysosomal
T4 construct: from tissue; host or cells: human liver
T4 sequence (O00754 50-1011): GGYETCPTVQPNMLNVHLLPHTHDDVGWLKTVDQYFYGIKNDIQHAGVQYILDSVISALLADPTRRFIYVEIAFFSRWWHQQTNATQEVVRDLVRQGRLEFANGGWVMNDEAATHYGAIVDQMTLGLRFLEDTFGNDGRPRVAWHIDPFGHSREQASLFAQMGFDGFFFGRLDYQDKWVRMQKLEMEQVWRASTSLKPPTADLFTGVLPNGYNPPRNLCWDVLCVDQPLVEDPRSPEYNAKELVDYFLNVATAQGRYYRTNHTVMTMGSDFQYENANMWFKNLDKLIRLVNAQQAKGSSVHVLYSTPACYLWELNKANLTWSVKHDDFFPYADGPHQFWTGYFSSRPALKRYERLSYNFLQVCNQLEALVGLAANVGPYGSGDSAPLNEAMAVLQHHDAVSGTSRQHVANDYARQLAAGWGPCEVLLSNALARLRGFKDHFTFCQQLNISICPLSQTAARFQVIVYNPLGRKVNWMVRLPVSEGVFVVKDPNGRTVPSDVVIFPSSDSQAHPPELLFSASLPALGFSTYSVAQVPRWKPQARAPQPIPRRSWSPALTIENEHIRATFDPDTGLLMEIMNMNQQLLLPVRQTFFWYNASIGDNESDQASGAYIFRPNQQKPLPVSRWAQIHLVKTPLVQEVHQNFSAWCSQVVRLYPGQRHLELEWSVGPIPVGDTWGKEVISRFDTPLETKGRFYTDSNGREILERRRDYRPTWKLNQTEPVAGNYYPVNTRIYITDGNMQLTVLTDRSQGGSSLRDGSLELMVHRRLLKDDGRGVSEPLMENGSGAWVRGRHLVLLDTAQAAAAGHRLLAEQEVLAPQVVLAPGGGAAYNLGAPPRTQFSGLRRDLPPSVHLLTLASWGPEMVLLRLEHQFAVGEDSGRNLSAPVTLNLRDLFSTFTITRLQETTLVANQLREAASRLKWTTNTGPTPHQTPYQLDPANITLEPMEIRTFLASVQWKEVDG

human α-mannosidases = assay: Human liver glycosidase inhibition, α-mannosidases; conditions: human liver glycosidases

inhibition at 1000 µM (human liver α-fucosidase) [%] | inhibition of α-fucosidase (in words) (human liver α-fucosidase) | inhibition at 1000 µM [1] [%] | inhibition at 1000 µM [2] [%] | inhibition at 1000 µM [3] [%] | inhibition of α-mannosidases (in words) (human α-mannosidases) | Compound
29 | only a weak inhibitor | 30 | 56 | 49 |  | OC[C@H]1N[C@H](CO)[C@@H](O)C(O)[C@@H]1O (stereo partly drawn) [Homomannojirimycin, 2,6-dideoxy-2,6-imino-D-glycero-D-talo-heptitol]
96 | powerful inhibitors | 0 | 0 | 0 | did not inhibit any α-mannosidase | OC[C@@H]1N[C@H](CO)[C@@H](O)[C@@H](O)[C@@H]1O [6-Epi-homomannojirimycin, 2,6-dideoxy-2,6-imino-L-glycero-D-talo-heptitol]

Compound | inhibition at 1000 µM (human liver α-fucosidase) [%] | inhibition of α-fucosidase (in words) (human liver α-fucosidase) | inhibition at 1000 µM [1] [%] | inhibition at 1000 µM [2] [%] | inhibition at 1000 µM [3] [%] | inhibition of α-mannosidases (in words) (human α-mannosidases)
OC[C@H]1NC[C@@H](O)[C@@H](O)[C@@H]1O [Deoxymannojirimycin, reference compound] | 91 | powerful inhibitors | 21 | 45 | 58 | 
